Reference: patent publication US7776873B2, “Method for treating damage to gastric mucosa” (Yuhan Corporation, priority 2005, dated 2010)

Legend:
[1] = test system: ERK (extracellular signal-regulated kinase); experiment: H. pylori-induced ERK activation (Western blot for p-ERK); type: cell-based, human; settings: AGS cells, 5 and 25 uM for 16 hours, then H. pylori 30 minutes, FIG. 4
Procedure: H. pylori-induced cytotoxicity activates MAPK (Mitogen-Activated Protein Kinase), thereby resulting in apoptosis. Therefore, H. pylori infection leads to an increase in phosphorylation of ERK among three major subfamilies of MAPKs.
The human gastric epithelial (AGS, KCLB 21739) cells were seeded in culture dishes at 2×10^6 cells/100 mm^2 and cultured in RPMI 1640 (Gibco BRL, Grand Island, N.Y., U.S.A.), supplemented with 100 units/mL penicillin, 100 ug/mL streptomycin, and 10% FBS (Fetal Bovine Serum). Revaprazan, dissolved in sterilized water, were added to AGS cells to reach final concentrations of 5 and 25 uM and the cells were incubated at 37° C. for 16 hours. RPMI 1640 media was removed and then the cells washed three times with PBS (137 mM NaCl, 2.7 mM KCl, 10 mM Na2HPO4, and 2 mM KH2PO4). For inoculation, H. pylori (ATCC 43504) cultures were resuspended in PBS and cocultured with AGS cells at a final concentration of 5×10^8 CFU/ml. After 30 minutes of incubation at 37° C., the cells were resuspended in lysis buffer (20 mM Tris-Cl (pH 7.5), 150 mM NaCl, 1% Triton X-100, 1 mM EDTA, and protease inhibitor cocktail (Roche, Mannheim, Germany)). The suspension was sonicated for approximately 10 seconds, four times using the BIORUPTOR (Cosmo Bio, Koto-ku, Tokyo), and centrifuged at 4° C., 12000 rpm for 30 minutes. […]

[2] = test system: heat-shock proteins, HO-1, HSP27, HSP70; experiment: Expression of heat-shock proteins in indomethacin-treated cells (Western blotting); type: cell-based, rat; settings: RGM-1 cells, 5, 10 and 25 uM for 16 hours, then indomethacin 0.5 uM 16 hours, FIG. 7
Procedure: To measure expression of heat-shock proteins, HO-1, HSP27, HSP70, cells were pretreated with concentrations of 5, 10, and 25 μM revaprazan, and then treated with indomethacin (a NSAID, 0.5 μM).
The rat gastric mucosal (RGM-1, RIKEN cell bank, Japan) cells were seeded in culture dishes at 2×10^6 cells/100 mm^2 and cultured in DMEM-F12 (Gibco BRL, Grand Island, N.Y., U.S.A.), supplemented with 100 units/mL penicillin, 100 ug/mL streptomycin, and 10% FBS (Fetal Bovine Serum). RGM-1 cells were pretreated with revaprazan (5, 10, and 25 uM) and cultured 37° C. for 16 hours. The culture media were removed and the cells were washed three times with PBS (137 mM NaCl, 2.7 mM KCl, 10 mM Na2HPO4, and 2 mM KH2PO4). A solution of indomethacin in sterilized water was added to the cells to reach a final concentration of 0.5 uM, and the cells were incubated at 37° C. for 16 hours. After incubation, the cells were resuspended in a lysis buffer (20 mM Tris-Cl (pH 7.5), 150 mM NaCl, 1% Triton X-100, 1 mM EDTA, and protease inhibitor cocktail (Roche, Mannheim, Germany)). The suspension was sonicated for approximately 10 seconds, four times using the BIORUPTOR (Cosmo Bio, Koto-ku, Tokyo), and centrifuged at 4° C., 12000 rpm for 30 minutes. […]

For `Cc1nc(Nc2ccc(F)cc2)nc(N2CCc3ccccc3C2C)c1C` (centres unmarked) [revaprazan, 5,6-dimethyl-2-(4-fluorophenylamino)-4-(1-methyl-1,2,3,4-tetrahydroisoquinolin-2-yl)pyrimidine], the “effect on ERK activation (p-ERK)” value [1] was “significant, concentration-dependent inhibitory effect” and the “expression of heat-shock proteins” value [2] was “stimulating expression”.
